This note sets out measurements from ChEMBL document CHEMBL3132744, “Structureactivity relationship studies of miniproteins targeting the androgen receptorcoactivator interaction” (Medchemcomm, 2013).

Square brackets hold non-standard residues; d marks the D form. Peptide text beside a SMILES is read from it. Phe(4-Cl) = N[C@@H](Cc1ccc(Cl)cc1)C(=O)O; Cha = N[C@@H](CC1CCCCC1)C(=O)O

The target in the assay is T1, Androgen receptor (Homo sapiens, UniProt P10275).
T1 sequence (P10275 whole entry): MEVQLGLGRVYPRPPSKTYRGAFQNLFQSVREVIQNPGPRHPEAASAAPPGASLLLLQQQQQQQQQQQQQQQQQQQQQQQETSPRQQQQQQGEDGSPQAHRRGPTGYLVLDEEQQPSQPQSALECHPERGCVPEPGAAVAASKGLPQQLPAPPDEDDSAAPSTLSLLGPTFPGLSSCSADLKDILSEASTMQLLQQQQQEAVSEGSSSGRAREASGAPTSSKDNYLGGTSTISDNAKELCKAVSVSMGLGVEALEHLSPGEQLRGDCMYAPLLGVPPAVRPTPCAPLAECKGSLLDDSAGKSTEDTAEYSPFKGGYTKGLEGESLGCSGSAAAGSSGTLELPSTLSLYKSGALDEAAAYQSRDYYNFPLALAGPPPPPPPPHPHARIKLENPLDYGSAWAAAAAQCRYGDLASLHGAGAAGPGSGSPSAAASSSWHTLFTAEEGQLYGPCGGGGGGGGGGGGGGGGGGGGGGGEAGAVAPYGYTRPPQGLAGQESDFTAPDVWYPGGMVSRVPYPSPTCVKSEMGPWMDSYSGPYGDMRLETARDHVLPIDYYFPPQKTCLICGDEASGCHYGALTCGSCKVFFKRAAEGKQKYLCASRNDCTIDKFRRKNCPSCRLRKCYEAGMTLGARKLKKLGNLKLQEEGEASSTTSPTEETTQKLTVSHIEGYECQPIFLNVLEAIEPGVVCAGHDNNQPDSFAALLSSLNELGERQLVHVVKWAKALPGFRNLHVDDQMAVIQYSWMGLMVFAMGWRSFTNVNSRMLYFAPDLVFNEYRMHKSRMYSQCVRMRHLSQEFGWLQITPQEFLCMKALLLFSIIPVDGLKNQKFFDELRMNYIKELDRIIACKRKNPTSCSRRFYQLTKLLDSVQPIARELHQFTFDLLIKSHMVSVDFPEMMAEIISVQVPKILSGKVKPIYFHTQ
As to the kind of experiment: Displacement of fluorescein-CSSRFESLFAGEKESR from human androgen receptor-LBD after 1 hr by fluorescence polarization assay.
In general, Ki refers to a measure of affinity in units of concentration, obtained from inhibition or displacement. `CC(C)C[C@H](NC(=O)[C@H](CS)NC(=O)[C@@H](NC(=O)[C@H](Cc1ccccc1)NC(=O)[C@H](Cc1ccc(O)cc1)NC(=O)[C@H](CS)NC(=O)[C@H](C)N)C(C)C)C(=O)N[C@@H](Cc1ccccc1)C(=O)N[C@@H](CCC(=O)O)C(=O)NCC(=O)N[C@@H](CC(N)=O)C(=O)N[C@@H](CC(=O)O)C(=O)N[C@@H](CCC(=O)O)C(=O)N[C@@H](CCC(=O)O)C(=O)N[C@H](C(=O)N[C@@H](CS)C(=O)N[C@@H](CCCCN)C(=O)N[C@@H](CCC(=O)O)C(=O)N[C@@H](Cc1c[nH]c2ccccc12)C(=O)N[C@@H](CS)C(=O)O)[C@@H](C)O` (H-ACYFVCLFEGNDEETCKEWC-OH) yielded an inhibition constant (Ki) of 3 µM. The molecule `CC(C)C[C@H](NC(=O)[C@H](CC(C)C)NC(=O)[C@H](CS)NC(=O)[C@H](CC(N)=O)NC(=O)[C@H](CC(C)C)NC(=O)[C@H](Cc1ccc(O)cc1)NC(=O)[C@H](CS)NC(=O)[C@H](C)N)C(=O)N[C@@H](CCC(=O)O)C(=O)NCC(=O)N[C@@H](CC(N)=O)C(=O)N[C@@H](CC(=O)O)C(=O)N[C@@H](CCC(=O)O)C(=O)N[C@@H](CCC(=O)O)C(=O)N[C@H](C(=O)N[C@@H](CS)C(=O)N[C@@H](CCCCN)C(=O)N[C@@H](CCC(=O)O)C(=O)N[C@@H](Cc1c[nH]c2ccccc12)C(=O)N[C@@H](CS)C(=O)O)[C@@H](C)O` (H-ACYLNCLLEGNDEETCKEWC-OH) had an inhibitory constant (Ki) of 1.4 µM. Regarding `CC(C)C[C@H](NC(=O)[C@H](CS)NC(=O)[C@H](CC(N)=O)NC(=O)[C@H](CC1CCCCC1)NC(=O)[C@H](Cc1ccc(O)cc1)NC(=O)[C@H](CS)NC(=O)[C@H](C)N)C(=O)N[C@@H](Cc1ccccc1)C(=O)N[C@@H](CCC(=O)O)C(=O)NCC(=O)N[C@@H](CC(N)=O)C(=O)N[C@@H](CC(=O)O)C(=O)N[C@@H](CCC(=O)O)C(=O)N[C@@H](CCC(=O)O)C(=O)N[C@H](C(=O)N[C@@H](CS)C(=O)N[C@@H](CCCCN)C(=O)N[C@@H](CCC(=O)O)C(=O)N[C@@H](Cc1c[nH]c2ccccc12)C(=O)N[C@@H](CS)C(=O)O)[C@@H](C)O` (H-ACY[Cha]NCLFEGNDEETCKEWC-OH), the affinity, expressed as Ki, was 3 µM.

For the molecule `CC(C)C[C@H](NC(=O)[C@H](CS)NC(=O)[C@H](CC(N)=O)NC(=O)[C@H](Cc1ccc(Cl)cc1)NC(=O)[C@H](Cc1ccc(O)cc1)NC(=O)[C@H](CS)NC(=O)[C@H](C)N)C(=O)N[C@@H](Cc1ccccc1)C(=O)N[C@@H](CCC(=O)O)C(=O)NCC(=O)N[C@@H](CC(N)=O)C(=O)N[C@@H](CC(=O)O)C(=O)N[C@@H](CCC(=O)O)C(=O)N[C@@H](CCC(=O)O)C(=O)N[C@H](C(=O)N[C@@H](CS)C(=O)N[C@@H](CCCCN)C(=O)N[C@@H](CCC(=O)O)C(=O)N[C@@H](Cc1c[nH]c2ccccc12)C(=O)N[C@@H](CS)C(=O)O)[C@@H](C)O` (H-ACY[Phe(4-Cl)]NCLFEGNDEETCKEWC-OH), the affinity corresponds to a Ki of 3 µM.

As for `CC[C@H](C)[C@H](NC(=O)[C@H](CS)NC(=O)[C@H](Cc1ccccc1)NC(=O)[C@H](CC(C)C)NC(=O)[C@H](CCC(=O)O)NC(=O)[C@H](CS)NC(=O)[C@H](Cc1ccccc1)NC(=O)[C@H](CCCNC(=N)N)NC(=O)[C@@H](N)CCCCN)C(=O)N[C@@H](CCC(N)=O)C(=O)NCC(=O)N[C@H](C(=O)NCC(=O)N[C@@H](CC(=O)O)C(=O)N[C@H](C(=O)N[C@@H](CCCCN)C(=O)N[C@@H](C)C(=O)N[C@@H](CS)C(=O)N[C@@H](CCC(=O)O)C(=O)N[C@@H](Cc1c[nH]c2ccccc12)C(=O)N[C@@H](C)C(=O)N[C@@H](CS)C(=O)N[C@@H](CCC(N)=O)C(=O)O)C(C)C)[C@@H](C)O` (H-KRFCELFCIQGTGDVKACEWACQ-OH), the inhibition constant (Ki) is 1.9 µM.
